Among the data in patent publication US8822503B2, “2-pyridone compounds” (Taisho Pharmaceutical Co., Ltd, priority 2009, dated 2014) are EC50 values, retold here.

As usually defined, the EC50 is the concentration that produces a half-maximal response. High values mean a less potent agent, low ones a more potent agent.

The assay has as its target T1, human liver GK (Homo sapiens, UniProt P35557).
T1 construct: GST (glutathione S-transferase) (N); made in house; host or cells: E. coli
T1 sequence (P35557 1-466 isoform P35557-2): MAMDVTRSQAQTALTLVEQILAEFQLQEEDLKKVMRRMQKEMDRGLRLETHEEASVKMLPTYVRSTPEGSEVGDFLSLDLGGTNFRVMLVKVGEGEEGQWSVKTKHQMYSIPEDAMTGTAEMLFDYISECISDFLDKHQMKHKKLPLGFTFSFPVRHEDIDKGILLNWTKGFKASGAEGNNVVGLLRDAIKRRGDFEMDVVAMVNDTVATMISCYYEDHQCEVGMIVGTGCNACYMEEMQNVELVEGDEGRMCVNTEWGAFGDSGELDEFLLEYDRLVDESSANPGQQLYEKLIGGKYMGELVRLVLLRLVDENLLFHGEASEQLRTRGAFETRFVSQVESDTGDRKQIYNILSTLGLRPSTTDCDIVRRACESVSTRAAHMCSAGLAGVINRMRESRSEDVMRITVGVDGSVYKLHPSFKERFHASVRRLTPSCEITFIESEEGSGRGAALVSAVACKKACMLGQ
Description: GK activation test. The conditions noted are these: test compound concentration needed to activate 50% of maximum activation ability; 4 mM 14C-labeled glucose, 2 mM ATP, room temperature, 20 minutes. The class given is biochemical. The method in brief:
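GST-tagged human liver GK from E. coli (0.24 μg/well) with 4 mM 14C-glucose, 2 mM ATP in Hepes-KOH pH 7.1, KCl, MgCl2, DTT, 1% DMSO, 20 min room temperature. Labeled glucose 6-phosphate captured on anion resin, eluted and counted. EC50 = concentration giving half of maximal activation.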
In turn, `CC(C)(C)c1ccc(/C(=C\[C@H]2CCC(=O)N2)c2ccc(Cc3ccccc3)c(=O)[nH]2)cc1` [Example 4-205, 3-Benzyl-6-{(E)-1-(4-tert-butylphenyl)-2-[(2R)-5-oxopyrrolidin-2-yl]ethenyl}pyridin-2(1H)-one] displayed an EC50 of 10 to 500 nM.
`CSc1ccc(/C(=C\[C@H]2CCC(=O)C2)c2ccc(C3CC3)c(=O)[nH]2)cc1Cl` [Example 1-71, 6-{(E)-1-[3-Chloro-4-(methylsulfanyl)phenyl]-2-[(1S)-3-oxocyclopentyl]ethenyl}-3-cyclopropylpyridin-2(1H)-one] had an EC50 of 10 to 500 nM.
The value for `O=C1CC[C@H](/C=C(\c2cc(C(F)(F)F)cc(C(F)(F)F)c2)c2ccc(C3CC3)c(=O)[nH]2)N1` [Example 4-119, 6-{(E)-1-[3,5-Bis(trifluoromethyl)phenyl]-2-[(2R)-5-oxopyrrolidin-2-yl]ethenyl}-3-cyclopropylpyridin-2(1H)-one] was 500 to 3000 nM; that for `COc1ccc(/C(=C\C2CCOCC2)c2ccc(C3CC3)c(=O)[nH]2)cc1` [Example 1-51, 3-Cyclopropyl-6-[(E)-1-(4-methoxyphenyl)-2-(tetrahydro-2H-pyran-4-yl)ethenyl]pyridin-2(1H)-one] was 500 to 3000 nM.
In the case of `CCSc1ccc(/C(=C\C2CCCC2)c2ccc(C)c(=O)[nH]2)cc1` [Example 1-9, 6-{(E)-2-Cyclopentyl-1-[4-(ethylsulfanyl)phenyl]ethenyl}-3-methylpyridin-2(1H)-one], the EC50 was in the range of 10 to 500 nM.
For `CC(C)(C)c1ccc(/C(=C\CO)c2ccc(Cl)c(=O)[nH]2)cc1` [Example 6-1, 6-[(1E)-1-(4-tert-Butylphenyl)-3-hydroxyprop-1-en-1-yl]-3-chloropyridin-2(1H)-one], the concentration giving a half-maximal response (EC50) was in the range of 3000 to 10000 nM.
The value for `CCN(CC)CCCSc1ccc(/C(=C\C2CCCC2)c2ccc(C)c(=O)[nH]2)cc1Cl` [Example 1-24, 6-[(E)-1-(3-Chloro-4-{[3-(diethylamino)propyl]sulfanyl}phenyl)-2-cyclopentylethenyl]-3-methylpyridin-2(1H)-one] was 10 to 500 nM; that for `O=C1CC[C@H](/C=C(\c2ccc(C(F)(F)F)cc2)c2ccc(OCCCO)c(=O)[nH]2)N1` [Example 4-170, 3-(3-Hydroxypropoxy)-6-{(E)-2-[(2R)-5-oxopyrrolidin-2-yl]-1-[4-(trifluoromethyl)phenyl]ethenyl}pyridin-2(1H)-one] was 3000 to 10000 nM.
The value for `O=C1CC[C@H](CC(c2ccc(OC(F)F)c(Cl)c2)c2ccc(C3CC3)c(=O)[nH]2)N1` (single isomer, unassigned) [Example 4-357] was 3000 to 10000 nM; that for `CC(C)(C)c1ccc(/C(=C\[C@H]2CCC(=O)N2)c2ccc(CCCCO)c(=O)[nH]2)cc1` [Example 4-190, 6-{(E)-1-(4-tert-Butylphenyl)-2-[(2R)-5-oxopyrrolidin-2-yl]ethenyl}-3-(4-hydroxybutyl)pyridin-2(1H)-one] was 10 to 500 nM.
The value for `O=C1CC[C@H](/C=C(\c2cccc(OCCCCO)c2)c2ccc(C3CC3)c(=O)[nH]2)N1` [Example 4-9, 3-Cyclopropyl-6-{(E)-1-[3-(4-hydroxybutoxy)phenyl]-2-[(2R)-5-oxopyrrolidin-2-yl]ethenyl}pyridin-2(1H)-one] was 500 to 3000 nM.
Consider `CSc1ccc(/C(=C\[C@H]2CCC(=O)C2)c2ccc(C3CC3)c(=O)[nH]2)cc1` [Example 1-65, 3-Cyclopropyl-6-{(E)-1-[4-(methylsulfanyl)phenyl]-2-[(1S)-3-oxocyclopentyl]ethenyl}pyridin-2(1H)-one], for which the EC50 was in the range of 10 to 500 nM.
The molecule `Cc1ccc(/C(=C\[C@H]2CCC(=O)N2)c2ccc(Cl)c(=O)[nH]2)c(C)c1` [Example 4-31, 3-Chloro-6-{(E)-1-(2,4-dimethylphenyl)-2-[(2R)-5-oxopyrrolidin-2-yl]ethenyl}pyridin-2(1H)-one] yielded an EC50 of 3000 to 10000 nM.
The value for `O=C1CC[C@H](CC(c2ccc(S(=O)(=O)C3CC3)c(Cl)c2)c2ccc(Cl)c(=O)[nH]2)N1` (single isomer, unassigned) [Example 4-305] was 3000 to 10000 nM; that for `CCc1ccc(/C(=C/C2CCCC2)c2ccc(S(=O)(=O)CCCO)cc2)[nH]c1=O` [Example 1-13, 6-[(E)-2-Cyclopentyl-1-{4-[(3-hydroxypropyl)sulfonyl]phenyl}ethenyl]-3-ethylpyridin-2(1H)-one] was 10 to 500 nM.
The value for `CC(C)(C)c1ccc(/C(=C\[C@H]2CCC(=O)N2)c2cccc(=O)[nH]2)cc1` [Example 4-186, 6-{(E)-1-(4-tert-Butylphenyl)-2-[(2R)-5-oxopyrrolidin-2-yl]ethenyl}pyridin-2(1H)-one] was 500 to 3000 nM; that for `CSc1ccc(/C(=C\CCCO)c2ccc(C3CC3)c(=O)[nH]2)cc1` [Example 1-96, 3-Cyclopropyl-6-{(1E)-5-hydroxy-1-[4-(methylsulfanyl)phenyl]pent-1-en-1-yl}pyridin-2(1H)-one] was 500 to 3000 nM; that for `Cc1ccc(/C(=C\[C@H]2CCC(=O)N2)c2ccc(C3CC3)c(=O)[nH]2)cc1Cl` [Example 4-106, 6-{(E)-1-(3-Chloro-4-methylphenyl)-2-[(2R)-5-oxopyrrolidin-2-yl]ethenyl}-3-cyclopropylpyridin-2(1H)-one] was 10 to 500 nM.
`CCN(CC)CCCS(=O)(=O)c1ccc(/C(=C\C2CCCC2)c2ccc(C)c(=O)[nH]2)cc1Cl` [Example 1-25, 6-[(E)-1-(3-Chloro-4-{[3-(diethylamino)propyl]sulfonyl}phenyl)-2-cyclopentylethenyl]-3-methylpyridin-2(1H)-one] had an EC50 of 500 to 3000 nM.
The value for `Cc1ccc(C(C[C@H]2CCC(=O)N2)c2ccc(C3CC3)c(=O)[nH]2)cc1Cl` (single isomer, unassigned) [Example 4-216] was 3000 to 10000 nM; that for `CCCc1ccc(C(CC2CCCC2)c2ccc(S(C)(=O)=O)cc2)[nH]c1=O` (centres unmarked) [Example 2-9, 6-{2-Cyclopentyl-1-[4-(methylsulfonyl)phenyl]ethyl}-3-propylpyridin-2(1H)-one] was 500 to 3000 nM.
`O=C1CC[C@H](/C=C(\c2ccc(SC3CC3)c(Cl)c2)c2ccc(Cl)c(=O)[nH]2)N1` [Example 4-13, 3-Chloro-6-{(E)-1-[3-chloro-4-(cyclopropylsulfanyl)phenyl]-2-[(2R)-5-oxopyrrolidin-2-yl]ethenyl}pyridin-2(1H)-one] gave an EC50 of 10 to 500 nM.
The value for `CC(C)(C)c1ccc(/C(=C\CN2C(=O)CCC2=O)c2ccc(Cl)c(=O)[nH]2)cc1` [Example 6-9, 1-[(2E)-3-(4-tert-Butylphenyl)-3-(5-chloro-6-oxo-1,6-dihydropyridin-2-yl)prop-2-en-1-yl]pyrrolidine-2,5-dione] was 500 to 3000 nM; that for `COc1cc(/C(=C\[C@H]2CCC(=O)N2)c2ccc(C3CC3)c(=O)[nH]2)ccc1Cl` [Example 4-124, 6-{(E)-1-(4-Chloro-3-methoxyphenyl)-2-[(2R)-5-oxopyrrolidin-2-yl]ethenyl}-3-cyclopropylpyridin-2(1H)-one] was 10 to 500 nM.
The value for `O=C1CC[C@H](CC(c2ccc(C(F)F)c(F)c2)c2ccc(C3CC3)c(=O)[nH]2)N1` (single isomer, unassigned) [Example 4-234] was 3000 to 10000 nM; that for `O=c1[nH]c(/C(=C/C2CCCC2)c2ccc(S(=O)(=O)C3CC3)cc2)ccc1CO` [Example 1-30, 6-{(E)-2-Cyclopentyl-1-[4-(cyclopropylsulfonyl)phenyl]ethenyl}-3-(hydroxymethyl)pyridin-2(1H)-one] was 10 to 500 nM.
The value for `CCc1ccc(/C(=C\[C@H]2CCC(=O)N2)c2ccc(C3CC3)c(=O)[nH]2)cc1Cl` [Example 4-271, 6-{(E)-1-(3-Chloro-4-ethylphenyl)-2-[(2R)-5-oxopyrrolidin-2-yl]ethenyl}-3-cyclopropylpyridin-2(1H)-one] was 10 to 500 nM.
The molecule `CCc1ccc(/C(=C\[C@H]2CCN(C(C)=O)C2)c2ccc(Cl)c(=O)[nH]2)cc1` [Example 4-40, 6-[(E)-2-[(3R)-1-Acetylpyrrolidin-3-yl]-1-(4-ethylphenyl)ethenyl]-3-chloropyridin-2(1H)-one] displayed an EC50 of 500 to 3000 nM.
On to `CSc1ccc(/C(=C\[C@H]2CCC(=O)N2C)c2ccc(C3CC3)c(=O)[nH]2)cc1` [Example 4-45, 3-Cyclopropyl-6-{(E)-2-[(2R)-1-methyl-5-oxopyrrolidin-2-yl]-1-[4-(methylsulfanyl)phenyl]ethenyl}pyridin-2(1H)-one], for which the EC50 fell in the range of 10 to 500 nM.
The value for `CCN(CC)CCCSc1ccc(/C(=C\[C@H]2CCC(=O)C2)c2ccc(C(F)(F)F)c(=O)[nH]2)cc1Cl` [Example 1-84, 6-{(E)-1-(3-Chloro-4-{[3-(diethylamino)propyl]sulfanyl}phenyl)-2-[(1S)-3-oxocyclopentyl]ethenyl}-3-(trifluoromethyl)pyridin-2(1H)-one] was 500 to 3000 nM.
The value for `CS(=O)(=O)c1ccc(/C(=C\[C@H]2CCC(=O)N2)c2ccc(C3CC3)c(=O)[nH]2)cn1` [Example 4-142, 3-Cyclopropyl-6-{(E)-1-[6-(methylsulfonyl)pyridin-3-yl]-2-[(2R)-5-oxopyrrolidin-2-yl]ethenyl}pyridin-2(1H)-one] was 500 to 3000 nM; that for `O=c1[nH]c(/C(=C/C2CCCC2)c2ccc(SC3CC3)cc2)ccc1Cl` [Example 1-103, 3-Chloro-6-{(E)-2-cyclopentyl-1-[4-(cyclopropylsulfanyl)phenyl]ethenyl}pyridin-2(1H)-one] was 10 to 500 nM.
